Measurements as given in patent US20050250110A1, “PNA conjugate for treating chronic myeloid leukemia (CML)” (priority 2001, published 2005).

What was measured:
[1] = tested on: tumor cell line K562 (Ph-positive); assay: Growth behavior of K562 cells following administration of PNA conjugates (cell number, Coulter Counter); format: cell-based
[2] = tested on: tumor cell line K562; assay: Apoptosis behavior of K562 cells: cell number after 24 h treatment and subsequent PNA removal; format: cell-based; conditions: 100 nM for 24 h
Method: The cell number change is shown on a time axis. The treatment was carried out for 24 h and by means of subsequent PNA removal. Final concentration: 100 nM. Dark blue line: AS conjugate; magenta: random sequence conjugate; yellow: AS-non-ligated; blue: untreated control.
The question of the apoptosis behavior following the administration of a conjugate according to the invention (corresponding to Example 3 and FIG. 6) was studied as such. The incubation period was 24 hours with 5% CO2 at 37° C. in an incubator. Having removed the medium mixture and carrying out a wash step twice using fresh RPMI-1640, the same volume of fresh medium was added by pipetting and further cultured. The medium was changed every 72 hours. The cultures were treated as before: As in the previous experiment, a break-down of the untreated culture was again found after about 72 hours. […] The relative stability up to 144 hours following the removal of antisense NLS-PNA was striking in the culture treated with antisense NLS-PNA.

## Transport peptide (penetratin)-disulfide bridge-NLS—KK(FITC)—PNA^BCR/Abl (sequence of PNA^BCR/Abl: H2N-TGCGTGTGGATGATTCTTTGTTTTAA-COOH) [antisense NLS penetratin]
[1]; 100 nM, in contrast to the controls
  phenotype of the treated cells: vital phenotype
[1]; final concentration 100 nM, treatment throughout the experiment
  stabilization of the cell number, time after the treatment: 24 h
[1]; final concentration 100 nM, treatment throughout the experiment, compared with untreated control
  growth behavior (cell number change on a time axis): stagnation of the cell proliferation
[2]; then PNA removal
  relative stability of the culture, time following PNA removal: up to 144 hours
  time of the maximum cell number following PNA removal: 120 h
[2]; then PNA removal and further culture, medium changed every 72 hours
  cell growth / cell number after PNA removal: minor increase in the cell number
